Data: patent US12571019B2, “Nisin-permeabilized microbial cell catalysts” (DANMARKS TEKNISKE UNIVERSITET, priority 2020, dated 2026)

Tests used:
S. thermophilus CS1980 = test: Lactose hydrolysis in POM buffer by permeabilized S. thermophilus CS1980 whole-cell catalyst; type: cell-based, Streptococcus thermophilus; conditions: for stability of the whole-cell catalyst: permeabilized 10 minutes at 28° C. (45% (v/v) ethanol or 2.5 μg/ml nisin), hydrolysis 50° C.
Description: S. thermophilus CS1980 was grown in 500-ml Erlenmeyer flasks containing 200 ml of medium at 37° C. for 16 h without agitation. As inoculum, 2 ml of a 24 hour, outgrown culture was used. Cells were collected by centrifugation at 10,000 g for 10 min at 4° C., washed once with sterile POM buffer (50 mM K2HPO4/KH2PO4, 1 mM MgCl2, pH 7.4) and finally re-suspended in POM buffer to an optical density (600 nm) of 0.33, corresponding to approximately 100 mg/l dry cell weight. The cell suspension was kept on ice until use. For permeabilization, cell suspensions were dispensed into sterile tubes (1 ml per tube) and centrifuged in a microcentrifuge at top speed for 5 min at 4° C.
Samples were withdrawn at different time points, and conversion of lactose (formation of glucose and galactose) was determined by HPLC analysis.
The concentrations of sugars (carbohydrate monomers and dimers) were determined using an Ultimate 3000 high-pressure liquid chromatography system (Dionex, Sunnyvale, CA) equipped with an Aminex HPX-87H column (Bio-Rad, Hercules, CA) and a Shodex RI-101 detector (Showa Denko KK, Tokyo, Japan). The column oven temperature was set to 30° C., and the mobile phase consisted of 5 mM H2SO4 with a flowrate of 0.5 ml/min.
Hydrolysis took place at 50° C.
Hydrolysis of lactose in POM buffer (50 g/l lactose) at 50° C. was carried out at a cell concentration of approximately 100 mg/l.
Hydrolysis of lactose (50 g/1) was carried out in POM buffer at 50° C.

S. thermophilus = conditions: Somkuti et al., 1998; cited from earlier work
[1] = system: S. thermophilus strains from starter culture ST057; test: Lactose hydrolysis in POM buffer by nisin-permeabilized S. thermophilus strains from starter culture ST057; type: cell-based, Streptococcus thermophilus
Description: Streptococcus thermophilus (S. thermophilus) strain CS1980 was isolated from a Danish yoghurt (same as used in example 1). Additional S. thermophilus strains were isolated from starter cultures kindly provided by Sacco Srl. Italy (ST057, ST022).
Hydrolysis was performed at 50° C.

S. thermophilus ST057-1 = test: Hydrolysis of lactose in milk by nisin-permeabilized S. thermophilus ST057-1; type: cell-based, Streptococcus thermophilus
Description: Nisin-treated S. thermophilus ST057-1 was applied in hydrolysis of lactose in milk, at cell concentration of approximately 100 mg/l or 1 g/l. […] The starting concentration of lactose in the milk used was 52 g/l. Hydrolysis took place at 50° C.
Hydrolysis of lactose in milk (52 g/l lactose) using nisin-treated cells was carried out at a cell concentration of approximately 1 g/l. Hydrolysis took place at 50° C.

[2] = system: L. lactis strain MG1363 ΔldhB ΔldhX Δpta ΔadhE ΔbutBA ΔaldB (RD04); test: Alpha-acetolactate synthase activity of nisin-permeabilized L. lactis RD04 (pyruvate to alpha-acetolactate, HPLC); type: cell-based, Lactococcus lactis; conditions: 100 μg/ml nisin, 15 min 37° C.; 200 mM sodium pyruvate
Description: A modified L. lactis strain MG1363 lacking alpha-acetolactate decarboxylase activities was used in the present experiment. More specifically, the strain RD04 was L. lactis strain MG1363 ΔldhB ΔldhX Δpta ΔadhE ΔbutBA ΔaldB, while harboring an expression vector for overexpressing native alpha-acetolactate synthase (Als).
Alpha-acetolactate synthase activity was determined by investigating the conversion rate of pyruvate to alpha-acetolactate, using HPLC measurements of alpha-acetolactate formation.

Molecule | stability of the whole-cell catalyst (S. thermophilus CS1980) | permeabilizing agent effect on measurable beta-galactosidase activity (S. thermophilus) | lactose hydrolyzed (S. thermophilus CS1980; 2.5 μg/ml nisin 10 min, 100 mg/l cells, 50 g/l lactose in POM buffer, hydrolysis at 50° C., within 24 hours) [%] | lactose conversion compared to control and ethanol-permeabilized cells (S. thermophilus CS1980; 2.5 μg/ml nisin, 10 minutes 28° C., 50 g/l lactose POM buffer, 50° C., 100 mg/l cells) | effect of prolonged nisin treatment (S. thermophilus CS1980; 30 minutes vs 10 minutes permeabilization) | efficiency of permeabilization at different permeabilization temperatures (S. thermophilus CS1980; permeabilization at 28° C. and 37° C., 2.5 μg/ml nisin 10 min) | cell stability after permeabilization (S. thermophilus CS1980; permeabilization at 55° C., 2.5 μg/ml nisin) | efficiency of permeabilization at different permeabilization temperatures (S. thermophilus CS1980; permeabilization temperatures 28-50° C., 2.5 μg/ml nisin) | time to reach 80% hydrolysis ([1]; POM buffer, 100 mg/l whole-cell catalyst, 50° C.) [h] | conversion of the lactose ([1]; two strains from starter culture ST057, 2.5 μg/ml nisin 10 min 28° C., hydrolysis 50° C., in less than half of the time of the other strains) [%] | time to reach 80% hydrolysis (S. thermophilus ST057-1; milk (52 g/l lactose), 100 mg/l whole-cell catalyst, 50° C.) | conversion rate on increasing the whole-cell catalyst concentration (S. thermophilus ST057-1; milk, 1 g/l vs 100 mg/l cells, 50° C.) | lactose conversion in milk at different permeabilization temperature (S. thermophilus ST057-1; permeabilization 28° C. vs 37° C., 1 g/l cells, hydrolysis 50° C.) | conversion of pyruvate to alpha-acetolactate compared to non-permeabilized cells [2]
CCO [ethanol] | compromised the stability of the whole-cell catalyst | efficient as a permeabilizing agent | – | – | – | – | – | – | – | – | – | – | – | –
nisin A | higher stability | – | 95 | perform better than the control as well as the ethanol-permeabilized cells | does not give better results | equally efficient | seemed to be compromised | equally efficient | ≤ 4 | > 90 | more than 12 hours | significantly increased | performed equally well | performed much better than non-permeabilized cells
